PubChem BioAssay (NCI)
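Exposure lasted 48 hours, with cells grown in 96-well plates and compounds tested at five concentrations. Definition used: TGI = concentration required for complete inhibition of growth.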

Assays:
Assay in all cases: growth of human tumour cells (NCI), 48 h
SK-OV-3 ovarian = system: SK-OV-3 ovarian
SNB-75 CNS = system: SNB-75 CNS
786-0 renal = system: 786-0 renal
SK-MEL-5 melanoma = system: SK-MEL-5 melanoma
SNB-19 CNS = system: SNB-19 CNS
DU-145 prostate = system: DU-145 prostate
HOP-92 NSCLC = system: HOP-92 NSCLC
SF-268 CNS = system: SF-268 CNS
HCC-2998 colon = system: HCC-2998 colon
HL-60(TB) leukemia = system: HL-60(TB) leukemia
NCI-H226 lung = system: NCI-H226 lung
BT-549 breast = system: BT-549 breast
MDA-N = system: MDA-N
IGROV1 ovarian = system: IGROV1 ovarian
M14 melanoma = system: M14 melanoma
SF-539 CNS = system: SF-539 CNS
MDA-MB-435 = system: MDA-MB-435
SN12C renal = system: SN12C renal
HT29 colon = system: HT29 colon
NCI-H460 lung = system: NCI-H460 lung
NCI-H23 lung = system: NCI-H23 lung
NCI-H522 lung = system: NCI-H522 lung
COLO 205 colon = system: COLO 205 colon
U251 CNS = system: U251 CNS
UACC-257 melanoma = system: UACC-257 melanoma
RXF 393 renal = system: RXF 393 renal
MCF7 breast = system: MCF7 breast
SK-MEL-2 melanoma = system: SK-MEL-2 melanoma
A549 NSCLC = system: A549 NSCLC
MALME-3M melanoma = system: MALME-3M melanoma
UACC-62 melanoma = system: UACC-62 melanoma
SW-620 colon = system: SW-620 colon
OVCAR-3 ovarian = system: OVCAR-3 ovarian
K-562 leukemia = system: K-562 leukemia
OVCAR-5 ovarian = system: OVCAR-5 ovarian
OVCAR-8 ovarian = system: OVCAR-8 ovarian
CAKI-1 renal = system: CAKI-1 renal
NCI/ADR-RES ovarian = system: NCI/ADR-RES ovarian
A498 renal = system: A498 renal
HCT-116 colon = system: HCT-116 colon
MDA-MB-231 breast = system: MDA-MB-231 breast
SK-MEL-28 melanoma = system: SK-MEL-28 melanoma
ACHN renal = system: ACHN renal
OVCAR-4 ovarian = system: OVCAR-4 ovarian
CCRF-CEM leukemia = system: CCRF-CEM leukemia
PC-3 prostate = system: PC-3 prostate
KM12 colon = system: KM12 colon
RPMI-8226 leukemia = system: RPMI-8226 leukemia
SR leukemia = system: SR leukemia
T-47D breast = system: T-47D breast
MOLT-4 leukemia = system: MOLT-4 leukemia
HCT-15 colon = system: HCT-15 colon
EKVX NSCLC = system: EKVX NSCLC
HS 578T breast = system: HS 578T breast
LOX IMVI melanoma = system: LOX IMVI melanoma
HOP-62 NSCLC = system: HOP-62 NSCLC
UO-31 renal = system: UO-31 renal
SF-295 CNS = system: SF-295 CNS
TK-10 renal = system: TK-10 renal

C#C[C@]1(O)CC[C@H]2[C@@H]3CCc4cc(OC(=O)c5cccc6cc7ccccc7nc56)ccc4[C@H]3CC[C@@]21C
TGI (SK-OV-3 ovarian): > 100 µM
TGI (SNB-75 CNS): > 100 µM
TGI (786-0 renal): 96.4 µM
TGI (SK-MEL-5 melanoma): 29.5 µM
TGI (SNB-19 CNS): > 100 µM
TGI (DU-145 prostate): 78.9 µM
TGI (HOP-92 NSCLC): > 100 µM
TGI (SF-268 CNS): > 100 µM
TGI (HCC-2998 colon): > 100 µM
TGI (HL-60(TB) leukemia): > 100 µM
TGI (NCI-H226 lung): > 100 µM
TGI (BT-549 breast): > 100 µM
TGI (MDA-N): 89.3 µM
TGI (IGROV1 ovarian): > 100 µM
TGI (M14 melanoma): > 100 µM
TGI (SF-539 CNS): > 100 µM
TGI (MDA-MB-435): > 100 µM
TGI (SN12C renal): 54.7 µM
TGI (HT29 colon): > 100 µM
TGI (NCI-H460 lung): > 100 µM
TGI (NCI-H23 lung): > 100 µM
TGI (NCI-H522 lung): 50.5 µM
TGI (COLO 205 colon): 43.7 µM
TGI (U251 CNS): > 100 µM
TGI (UACC-257 melanoma): > 100 µM
TGI (RXF 393 renal): > 100 µM
TGI (MCF7 breast): > 100 µM
TGI (SK-MEL-2 melanoma): > 100 µM
TGI (A549 NSCLC): > 100 µM
TGI (MALME-3M melanoma): 34.7 µM
TGI (UACC-62 melanoma): 80.4 µM
TGI (SW-620 colon): > 100 µM
TGI (OVCAR-3 ovarian): 63 µM
TGI (K-562 leukemia): > 100 µM
TGI (OVCAR-5 ovarian): > 100 µM
TGI (OVCAR-8 ovarian): > 100 µM
TGI (CAKI-1 renal): 65.1 µM
TGI (NCI/ADR-RES ovarian): > 100 µM
TGI (A498 renal): > 100 µM
TGI (HCT-116 colon): 80.1 µM
TGI (MDA-MB-231 breast): 71.9 µM
TGI (SK-MEL-28 melanoma): > 100 µM
TGI (ACHN renal): > 100 µM
TGI (OVCAR-4 ovarian): > 100 µM
TGI (CCRF-CEM leukemia): > 100 µM
TGI (PC-3 prostate): > 100 µM
TGI (KM12 colon): 50.6 µM
TGI (RPMI-8226 leukemia): > 100 µM
TGI (SR leukemia): > 100 µM
TGI (T-47D breast): 34 µM
TGI (MOLT-4 leukemia): > 100 µM
TGI (HCT-15 colon): > 100 µM
TGI (EKVX NSCLC): > 100 µM
TGI (HS 578T breast): > 100 µM
TGI (LOX IMVI melanoma): 66 µM
TGI (HOP-62 NSCLC): > 100 µM

Cn1c2ccccc2c(=NNc2ccc(C(=O)O)cc2)c2ccccc21
TGI (SK-OV-3 ovarian): 56.7 µM
TGI (SNB-75 CNS): 56.5 µM
TGI (786-0 renal): 84.4 µM
TGI (SK-MEL-5 melanoma): 32.7 µM
TGI (SNB-19 CNS): > 100 µM
TGI (DU-145 prostate): 58 µM
TGI (HOP-92 NSCLC): 57.7 µM
TGI (SF-268 CNS): 48 µM
TGI (HCC-2998 colon): 24.9 µM
TGI (HL-60(TB) leukemia): 48.6 µM
TGI (NCI-H226 lung): 54 µM
TGI (BT-549 breast): 74.9 µM
TGI (MDA-N): 33.7 µM
TGI (IGROV1 ovarian): 95 µM
TGI (M14 melanoma): 31.8 µM
TGI (SF-539 CNS): 49.9 µM
TGI (MDA-MB-435): 34.3 µM
TGI (SN12C renal): 75.3 µM
TGI (HT29 colon): 32.3 µM
TGI (NCI-H460 lung): 43.5 µM
TGI (NCI-H23 lung): 57.8 µM
TGI (NCI-H522 lung): 27.2 µM
TGI (COLO 205 colon): 32.3 µM
TGI (U251 CNS): 41 µM
TGI (UACC-257 melanoma): 57 µM
TGI (RXF 393 renal): 38 µM
TGI (MCF7 breast): 26.5 µM
TGI (SK-MEL-2 melanoma): 40.7 µM
TGI (A549 NSCLC): 38.7 µM
TGI (MALME-3M melanoma): 40.8 µM
TGI (UACC-62 melanoma): 44.1 µM
TGI (SW-620 colon): 65.3 µM
TGI (OVCAR-3 ovarian): 49.6 µM
TGI (K-562 leukemia): 23.3 µM
TGI (OVCAR-5 ovarian): 48 µM
TGI (OVCAR-8 ovarian): 33.5 µM
TGI (CAKI-1 renal): 63.4 µM
TGI (NCI/ADR-RES ovarian): 57.9 µM
TGI (HCT-116 colon): 34.5 µM
TGI (MDA-MB-231 breast): 50.1 µM
TGI (SK-MEL-28 melanoma): 60.7 µM
TGI (ACHN renal): 45.6 µM
TGI (OVCAR-4 ovarian): 49 µM
TGI (CCRF-CEM leukemia): 40.5 µM
TGI (PC-3 prostate): 43.9 µM
TGI (KM12 colon): 50.3 µM
TGI (RPMI-8226 leukemia): 53.1 µM
TGI (SR leukemia): 42.7 µM
TGI (T-47D breast): 58.9 µM
TGI (UO-31 renal): 46.9 µM
TGI (MOLT-4 leukemia): 57.4 µM
TGI (HCT-15 colon): 38.9 µM
TGI (SF-295 CNS): 78.4 µM
TGI (EKVX NSCLC): 32.2 µM
TGI (HS 578T breast): 55.9 µM
TGI (TK-10 renal): 62.4 µM
TGI (LOX IMVI melanoma): 24.1 µM
TGI (HOP-62 NSCLC): 56.2 µM
